Reference: ChEMBL document CHEMBL5154886, “Novel Capsid Inhibitors for Treating HIV Infection” (ACS Med Chem Lett, 2022)

tested on: Human immunodeficiency virus 1; test: Antiviral activity against HIV-1 IIIB infected in human MT4 cells assessed as inhibition of viral replication measured after 5 days by Celltiter-Glo assay; assay type: functional, organism-based; conditions: Human immunodeficiency virus 1, IIIB, MT4, 120 h

| Compound | EC50 [nM] |
| --- | --- |
| Cc1nc2nc([C@H](Cc3cc(F)cc(F)c3)NC(=O)Cn3nc(C(F)(F)F)c4c3C(F)(F)[C@@H]3C[C@H]43)c(-c3ccc(Cl)c4c(NS(C)(=O)=O)nn(C)c34)cc2[nH]1 | 2.4 |
| COCc1nc2nc([C@H](Cc3cc(F)cc(F)c3)NC(=O)Cn3nc(C(F)F)c4c3C(F)(F)[C@@H]3C[C@H]43)c(-c3ccc(Cl)c4c(NS(C)(=O)=O)nn(C)c34)cc2[nH]1 | 1.5 |
| COCc1nc2nc([C@H](Cc3cc(F)cc(F)c3)NC(=O)Cn3nc(C(F)(F)F)c4c3C(F)(F)[C@@H]3C[C@H]43)c(-c3ccc(Cl)c4c(NS(C)(=O)=O)nn(C)c34)cc2[nH]1 | 2.1 |
| Cc1nc2nc([C@H](Cc3cc(F)cc(F)c3)NC(=O)Cn3nc(C(F)F)c4c3C(F)(F)[C@@H]3C[C@H]43)c(-c3ccc(Cl)c4c(NS(C)(=O)=O)nn(C)c34)cc2[nH]1 | 1.6 |
| Cn1nc(N)c2cccc(-c3cc4sc(N5CC(C)(O)C5)nc4nc3[C@H](Cc3cc(F)cc(F)c3)NC(=O)Cn3nc(C(F)F)c4c3C3CC3CC4)c21 (stereo partly specified) | 1.3 |
| Cn1cc(-c2nc3nc([C@H](Cc4cc(F)cc(F)c4)NC(=O)Cn4nc(C(F)F)c5c4C(F)(F)[C@@H]4C[C@H]54)c(-c4ccc(Cl)c5c(NS(C)(=O)=O)nn(C)c45)cc3[nH]2)cn1 | 3 |
